The inhibition is how much of the control response was suppressed.

Structures are written as SMILES.

One assay concerns the target HCK (Homo sapiens (Human), UniProt P08631). As to the kind of experiment: Enzyme binding assay (Kinomescan) HCK. As to conditions: read-out: % Inhibition for kinase binding at 500 nM HCK. The protocol: (§1) The kinase enzyme binding activities of compounds disclosed herein were determined using a proprietary assay which measures active site-directed competition binding to an immobilized ligand (Fabian, M. A. et al., Nature Biotechnol., 2005, 23:329-336). These assays were conducted by DiscoverX (formerly Ambit; San Diego, Calif.). The percentage inhibition produced by incubation with a test compound is calculated relative to the non-inhibited control.

In a further assay the target is B-Raf (Homo sapiens (Human), UniProt P15056). As to the kind of experiment: Enzyme binding assay (Kinomescan) B-Raf. The note with it: read-out: % Inhibition for kinase binding at 500 nM B-Raf. The protocol:
(§2) These assays were conducted by DiscoverX (formerly Ambit; San Diego, Calif.). The percentage inhibition produced by incubation with a test compound is calculated relative to the non-inhibited control.

The target in a further assay is p38 MAPKγ (Homo sapiens (Human), UniProt P53778). As to the kind of experiment: Enzyme binding assay (Kinomescan) p38 MAPKγ. The note with it: read-out: % Inhibition for kinase binding at 500 nM p38 MAPKγ. The protocol: as §2
Another assay addresses GSK3α (Homo sapiens (Human), UniProt P49840). As to the kind of experiment: Enzyme binding assay (Kinomescan) GSK3α. As to conditions: read-out: % Inhibition for kinase binding at 500 nM GSK3α. The protocol:
as §1

The target in the next assay is p38 MAPKα (Homo sapiens (Human), UniProt Q16539). As to the kind of experiment: Enzyme binding assay (Kinomescan) p38 MAPKα. As to conditions: read-out: % Inhibition for kinase binding at 500 nM p38 MAPKα. The protocol: as §1
The next assay deals with cSrc (Homo sapiens (Human), UniProt P12931). As to the kind of experiment: Enzyme binding assay (Kinomescan) cSrc. As to conditions: read-out: % Inhibition for kinase binding at 500 nM cSrc. The protocol:
as §2

The next assay deals with Syk (Homo sapiens (Human), UniProt P43405). As to the kind of experiment: Enzyme binding assay (Kinomescan) Syk. The note with it: read-out: % Inhibition for kinase binding at 500 nM Syk. The protocol: as §1

Chain of p38 MAPKα (Q16539 whole entry): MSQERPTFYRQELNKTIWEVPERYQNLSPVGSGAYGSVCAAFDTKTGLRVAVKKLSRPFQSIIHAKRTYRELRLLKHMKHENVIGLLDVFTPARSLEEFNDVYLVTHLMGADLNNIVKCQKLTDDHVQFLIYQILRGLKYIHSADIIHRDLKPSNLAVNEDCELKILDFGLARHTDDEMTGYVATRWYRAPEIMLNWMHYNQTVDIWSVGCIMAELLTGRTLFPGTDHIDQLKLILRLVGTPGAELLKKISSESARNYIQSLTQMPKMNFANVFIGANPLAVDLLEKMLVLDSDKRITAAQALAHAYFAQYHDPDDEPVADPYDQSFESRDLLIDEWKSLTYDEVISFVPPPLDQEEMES
Chain of cSrc (P12931 whole entry, looked up): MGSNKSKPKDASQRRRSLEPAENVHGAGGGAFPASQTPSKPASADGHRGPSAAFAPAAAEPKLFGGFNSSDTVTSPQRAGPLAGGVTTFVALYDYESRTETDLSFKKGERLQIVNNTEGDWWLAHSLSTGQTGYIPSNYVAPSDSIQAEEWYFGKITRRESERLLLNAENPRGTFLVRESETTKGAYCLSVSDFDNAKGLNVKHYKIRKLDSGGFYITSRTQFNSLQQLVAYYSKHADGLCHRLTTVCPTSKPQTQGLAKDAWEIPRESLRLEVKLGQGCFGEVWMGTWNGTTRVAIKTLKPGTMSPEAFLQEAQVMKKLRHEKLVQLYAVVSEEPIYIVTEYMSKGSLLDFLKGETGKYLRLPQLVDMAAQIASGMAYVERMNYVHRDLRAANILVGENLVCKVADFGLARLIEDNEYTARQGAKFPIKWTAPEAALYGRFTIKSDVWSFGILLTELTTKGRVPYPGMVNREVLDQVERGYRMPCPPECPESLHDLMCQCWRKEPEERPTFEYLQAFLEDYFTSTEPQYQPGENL
Chain of B-Raf (P15056 whole entry): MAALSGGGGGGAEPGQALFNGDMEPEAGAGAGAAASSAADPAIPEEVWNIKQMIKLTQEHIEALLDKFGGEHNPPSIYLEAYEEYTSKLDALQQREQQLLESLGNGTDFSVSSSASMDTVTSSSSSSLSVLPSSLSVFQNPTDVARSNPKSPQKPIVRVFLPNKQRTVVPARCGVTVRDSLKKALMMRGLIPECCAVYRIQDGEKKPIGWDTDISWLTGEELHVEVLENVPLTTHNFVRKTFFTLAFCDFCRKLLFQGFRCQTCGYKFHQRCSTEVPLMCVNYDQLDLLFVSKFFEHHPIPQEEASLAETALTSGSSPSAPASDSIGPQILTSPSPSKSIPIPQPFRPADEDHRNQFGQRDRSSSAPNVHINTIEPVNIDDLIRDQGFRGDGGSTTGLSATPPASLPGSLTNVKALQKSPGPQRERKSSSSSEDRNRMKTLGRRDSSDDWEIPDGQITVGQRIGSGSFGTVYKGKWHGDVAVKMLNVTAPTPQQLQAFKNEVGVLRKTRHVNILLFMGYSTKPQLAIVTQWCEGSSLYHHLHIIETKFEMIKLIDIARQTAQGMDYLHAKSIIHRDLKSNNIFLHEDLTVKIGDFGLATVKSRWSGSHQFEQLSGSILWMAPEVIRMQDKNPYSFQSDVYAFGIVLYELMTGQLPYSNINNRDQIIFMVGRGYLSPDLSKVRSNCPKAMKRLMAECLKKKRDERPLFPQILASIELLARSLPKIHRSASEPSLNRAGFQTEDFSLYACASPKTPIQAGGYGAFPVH
Chain of p38 MAPKγ (P53778 whole entry): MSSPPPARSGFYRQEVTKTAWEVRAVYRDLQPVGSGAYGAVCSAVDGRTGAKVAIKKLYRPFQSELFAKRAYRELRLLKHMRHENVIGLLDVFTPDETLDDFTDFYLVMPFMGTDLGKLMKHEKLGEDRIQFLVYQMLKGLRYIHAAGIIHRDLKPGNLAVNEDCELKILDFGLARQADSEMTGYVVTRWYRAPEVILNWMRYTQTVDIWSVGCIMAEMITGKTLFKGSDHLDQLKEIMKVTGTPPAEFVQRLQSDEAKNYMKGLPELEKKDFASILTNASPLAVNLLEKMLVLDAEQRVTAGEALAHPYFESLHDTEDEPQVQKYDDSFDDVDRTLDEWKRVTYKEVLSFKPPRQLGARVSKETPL
Chain of GSK3α (P49840 whole entry): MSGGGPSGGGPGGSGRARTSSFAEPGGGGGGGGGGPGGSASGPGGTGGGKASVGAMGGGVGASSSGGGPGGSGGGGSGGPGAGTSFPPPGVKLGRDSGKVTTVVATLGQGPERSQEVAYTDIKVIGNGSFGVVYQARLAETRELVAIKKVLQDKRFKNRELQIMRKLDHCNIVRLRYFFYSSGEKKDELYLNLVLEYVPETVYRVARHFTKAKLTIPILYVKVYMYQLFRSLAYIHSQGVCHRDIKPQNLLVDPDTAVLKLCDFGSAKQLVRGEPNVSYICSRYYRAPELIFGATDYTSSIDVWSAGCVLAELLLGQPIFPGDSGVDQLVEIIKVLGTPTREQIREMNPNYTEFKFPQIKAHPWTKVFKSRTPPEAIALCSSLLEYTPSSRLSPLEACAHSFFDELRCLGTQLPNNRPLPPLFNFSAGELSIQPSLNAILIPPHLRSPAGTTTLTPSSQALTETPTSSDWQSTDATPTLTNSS
Chain of HCK (P08631 22-526): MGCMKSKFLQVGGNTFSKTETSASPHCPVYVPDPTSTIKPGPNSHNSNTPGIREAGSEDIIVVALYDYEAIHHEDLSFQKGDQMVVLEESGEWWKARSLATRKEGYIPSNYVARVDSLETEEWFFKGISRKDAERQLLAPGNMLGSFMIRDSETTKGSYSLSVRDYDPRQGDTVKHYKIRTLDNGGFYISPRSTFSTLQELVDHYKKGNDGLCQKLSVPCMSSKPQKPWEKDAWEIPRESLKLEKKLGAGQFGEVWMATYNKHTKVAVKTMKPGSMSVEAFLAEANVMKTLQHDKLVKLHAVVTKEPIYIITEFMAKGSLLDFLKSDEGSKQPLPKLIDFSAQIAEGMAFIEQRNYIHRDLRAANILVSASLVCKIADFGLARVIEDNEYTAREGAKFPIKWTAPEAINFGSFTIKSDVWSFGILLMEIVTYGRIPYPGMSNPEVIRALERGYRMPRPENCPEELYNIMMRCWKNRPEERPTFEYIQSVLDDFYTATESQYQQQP

Turning to `CC(C)(C)c1cc(NC(=O)Nc2ccc(Oc3ccnc(Nc4ccc5[nH]ncc5c4)n3)c3ccccc23)n(-c2ccc(OCCN3CCOCC3)cc2)n1` [Example 12, 1-(4-((2-((1H-Indazol-5-yl)amino)pyrimidin-4-yl)oxy)naphthalen-1-yl)-3-(3-(tert-butyl)-1-(4-(2-morpholinoethoxy)phenyl)-1H-pyrazol-5-yl)urea], the inhibition at 0.5 µM at HCK was 100%; at B-Raf it was 0%; on p38 MAPKγ, 52%; at GSK3α it was 31%; on p38 MAPKα it was 66%; at cSrc, 100%. Also, at Syk, the inhibition at 0.5 µM was 100%.

For the origin of these results see patent US9249125B2, “Pyrazole derivatives as p38 MAP inhibitors” (RESPIVERT LIMITED, priority 2012, dated 2016).
